The values below come from patent US20090163436A1, “METHODS FOR DELIVERY OF NUCLEIC ACIDS” (Nucleonics, Inc., priority 2002, published 2009).

Series [1] is described as follows: Example 3: tissue distribution of labeled DNA after IV administration. The note with it: for total amount of CPMs in all of the organs combined, rank order: 5 days following IV, lung, heart, kidney, spleen, liver.
Experimental: (§1) DNA is complexed with spermines as described in the previous two examples at the optimal charge ratio of 0.8 with either the monolactosyl, trilactosyl, or mannosyl (mono and bis) spermine to achieve a final DNA concentration of 1.0 mg/mL in citrate buffer at 5 mM and 150 mM NaCl.
(§2) The mice, 5 per group, are injected intravenously through the tail vein (100 uL). Mice are sacrificed at various times as indicated for serum analysis of plasmid DNA to determine blood clearance. To determine the amount of plasmid in blood, one mL of serum is placed in liquid scintillation counters with fluor to quantify the CPMs associated with each sample. In order to determine tissue distribution, various organs are harvested on day 5 (peak of expression from previous studies) and snap frozen. Whole organs from the animals are harvested livers from 3 animals in the group of 5 are ground in mild alkali (100 mM KOH) and neutralized with acid (HCl) prior to scintillation counting. Livers from the remaining two animals are embedded in paraffin and sectioned as described in Example 2 and stained for betagalactosidase activity, as described.
(§3) In the second part of the study, distribution of DNA amongst some of the major organs is evaluated 5 days following IV administration. A simple tissue grind and scintillation counting is carried out. The organs chosen (lung, heart, kidney, spleen, and liver) for analysis represent the major capillary beds.
Series [2] can be described thus: Example 3: blood clearance of 14C-labeled plasmid DNA after IV administration.
Experimental: Bacteria containing the beta-galactosidase expression plasmid are grown in minimal M9 media (Miller, CSHS laboratory Press) in glucose as the sole carbon source overnight. The cells are washed in minimal media thrice through centrifugation and resuspension in M9 media without the carbon source, and resuspended in M9 with uniformally 14C-labeled ribose (NEN, MA) and deoxynucleosides (NEN, MA) for 3 hours. The cells are harvested, and the plasmid is isolated using Qiagen miniprep columns (Qiagen, Inc., CA). The labeled plasmid is mixed with unlabeled plasmid to achieve a specific activity of 3 million CPM per 100 ug plasmid.
as §1
The mice, 5 per group, are injected intravenously through the tail vein (100 uL). Mice are sacrificed at various times as indicated for serum analysis of plasmid DNA to determine blood clearance. To determine the amount of plasmid in blood, one mL of serum is placed in liquid scintillation counters with fluor to quantify the CPMs associated with each sample. […]
In series [3] the test system is cells derived from the spleen. To be noted: IV administration, separate study.
Experimental: The complexes are prepared as described above except that 5 mM citrate and 150 mM NaCl are used as buffer. To determine the transfection efficiency, the spleen is removed from mice on day 5. Cells are recovered by crushing the spleen on a slide and observing EGFP fluorescence by fluorescent microscopy. The cell type is identified by cross-staining staining the preparation with labeled MAC1 antibody (macrophage identification) or labeled mannosylated BSA (identification of mannose receptor containing cells) (Current Protocols in Immunology).
In the study evaluating the distribution and blood clearance of DNA following an IV administration, labeled DNA is separately complexed with modified spermines (only monocomplexes of any one spermine is used in this study). Mannose (mono and bis) and lactose (mono and tri) spermines are used separately in these complexes. Unmodified spermine and spermidine complexes with DNA serve as controls.
Series [4] can be described thus: Example 4: phase location of DNA in cationic amphiphile emulsions. The class given is physicochemical. To be noted: formulation containing the named cationic amphiphile.
Series [5] can be described thus: Example 4: oral delivery of luciferase plasmid microemulsions. As to the method: The objective is to develop microemulsion (ME) formulations designed for oral delivery of DNA. Microemulsions for oral delivery are prepared using a mixture that contains DNA or other nucleic acids (2.0 mg/mL in, e.g., 30 mM citrate, 150 mM NaCl pH 6.8 buffer) and benzalkonium chloride (0.1%). The mixture is further mixed in equal volumes to a mixture that contains seven parts of Labrasol™ (Gattefosse, Saint-Priest Cedex, France), one part of Lauroglycol (polypropylene esters such as Lauroglycol FCC for oral administration from Gattefosse, France) and two parts of ethanol. Other formulations contain bupivacaine at 0.25%, octyl spermine at 2.0 mg/mL, or cholesteryl spermine at 2.0 mg/mL, instead of benzalkonium chloride and lauroglycol in the above formulation. […] The DNA tested is an expression plasmid for luciferase (Promega Corp.). […] The formulation (100 uL) containing DNA is fed to mice (5 in one formulation group) by intubating the stomach. Five days following administration, several organs including kidney, liver, lung, intestinal segments (ileum, duodenum, small intestine and large intestine), brain, heart, and spleen are harvested and snap frozen. The tissues are homogenized in luciferase buffer (Promega Corp., Madison, Wis.) using a polytron. Luciferase activity is determined using a luminometer (Berthold) and in the assay buffer (Promega Corp., Madison, Wis.).

The nature of series [6]: In vivo transfection with local anesthetic complexed DNA versus naked DNA. To be noted: IL12 DNA complexed with 0.25% bupivacaine. The source says:
As compared to cationic lipids, simple structures derived from water-soluble amphiphiles have a higher probability of forming transfecting structures that are uniform and homogenous, which is expected to result in increased efficiency, predictability, and potency. We selected cationic amphiphiles that are membrane active, such as the local anesthetics, e.g., bupivacaine (see U.S. Pat. No. 6,383,512, “Vesicular complexes and methods of making and using the same,” which describes compositions comprising lamellar vesicles that comprise a local anesthetic, e.g., bupivacaine, and a nucleic acid molecule). In particular, this reference describes compositions and methods for delivery of nucleic acid molecules that are antisense, ribozyme, or triplex forming nucleic acid molecules, as well as nucleic acid molecules that encode proteins (e.g., non-immunogenic therapeutically effective proteins, and immunogenic proteins designed to elicit a desired immune response in a host). Experiments were carried out to determine whether such vesicular complexes could be used to deliver dsRNA expression constructs capable of eliciting RNAi. […] Additionally, these are currently used in humans, and their toxicity/dose profiles are well characterized. In contrast, the associated toxicity of lipids that transfect efficiently in vitro may preclude their use in vivo. […]

Series [7] deals with liver cells (hepatocytes, Kupfer cells). The note with it: IV; for liver cell type transfected: betagal staining of liver slices. As to the method: The mixture is injected intravenously (100 uL) of 5 mice for each formulation variant. Formulations variants included different charge ratios and various lactosyl spermine to cholesteryl spermine ratios. At 5 days postinjection, when in vivo plasmid expression peaks, the mice are sacrificed, and their livers are removed and snap frozen for histological analysis. Several slices of the liver tissue both near and farther from the major blood vessels and the bile ducts are embedded into paraffin and sectioned using a microtome. The tissue slices are stained using X-gal (an enzymatic substrate for betagalactosidase). The liver tissue slices are stained using labeled lactosylated BSA, as a cross stain to identify hepatocytes (asialoglycoprotein receptor). The slides are viewed under an UV fluoroscent microscope to detect the label fluorescence, and the betgal stain is observed under light microscopy. Control mice are administered “naked” DNA free of added complexing agents and DNA complexed with either lactosyl spermine or cholesteryl spermine, but not both.

Series [8] deals with peritoneal cells (macrophages, dendritic cells).
Experimental: Peritoneal fluid was isolated from mice. Plasmid DNA designed to express the green fluorescent protein (GFP) in mammalian cells was complexed with a mixture of the two spermines, mannosyl-mannosyl-spermine and cholesteryl spermine, at different ratios. The complexes were applied to peritoneal cells in culture. The fluorescence intensity of the cells were recorded. The complexes that were prepared for the ex vivo study were injected into the peritoneal cavity of mice. Four and five days following the injection, the cells were collected from the peritoneal cavity and spun down on slides and their ability to fluoresce was determined. The fluorescence intensities were recorded visually.
Labeled antibodies to defined cell surface markers were used to identify the cell type.
The conditions of series [9]: mouse, in vivo, iv.
Experimental: as §1, §2, §3
Another series relates to IL-12 p40. Briefly: Example 5: serum IL-12 p40 ELISA after intramuscular IL-12 plasmid in Balb/C mice. To be noted: mouse, in vivo. As to the method: Expression of the murine IL-12 transgenes was achieved through the use of vectors containing the HCMV IE promoter and SV40 polyadenation signal. ELISA of serum IL-12 p40 levels affords a facile system to analyze expression levels and the effectiveness of the administered DNA. p40 is one of the two polypeptide chains comprising IL-12.
In all of the RNAi studies described here using IL12 DNA (IL12, dsRNA producing vector and vector encoding T7 RNA polymerase), IL12 DNA was administered as a complex with bupivacaine, a local anesthetic, since higher in vivo transfection efficiencies (˜3×) are achieved with this complex over those mediated by naked DNA. […]
In another set of experiments, murine IL-12 p40 expression in sera was monitored in mice following intramuscular injection of a 100 ug dose of murine IL-12 expression plasmids or in naïve mouse controls that were not injected. […]
Murine IL-12 p40 serum expression was monitored following intramuscular injection of 100 ug IL-12 expression plasmids in mice injected at days 0 and 150 or in mice injected only at day 150. […]

Read-outs that look alike come from different tables or passages of the source.

For `CC(=O)O.CC(=O)O.CC(=O)O.CC(=O)O.NCCCN(CCCCCNC(=O)CCS[C@H]1O[C@H](CO)[C@@H](O)[C@H](O)[C@@H]1O)CCCCN(CCCN)CCCCCNC(=O)CCS[C@H]1O[C@H](CO)[C@@H](O)[C@H](O)[C@@H]1O` [bismannosyl spermine, N^4,N^8-bis (5-N-(α-3′-propionamido thiomannoside)pentyl)-spermine tetraacetate], the “total amount of CPMs in all of the organs combined, rank order” value in series [1] is “trilactosyl>monolactosyl≅bismannosyl≅monomannosyl>>>controls”. Besides, the “blood clearance slower than trilactosyl spermine complexes” value in [2] (DNA monocomplex) is listed as 50-100 times. For the same molecule, the “blood clearance of DNA” value in series [2] (DNA monocomplex with the named spermine, charge ratio 0.8) is “rapid clearance”. Further, the “cells taking up the complexes” value in series [3] was “taken up exclusively by cells of the macrophage and dendritic cell lineages”.

Take `CCCCN1CCCCC1C(=O)Nc1c(C)cccc1C` (centres unmarked) [bupivacaine, reference compound]: the “phase of the oil in water emulsion that holds the DNA” value (“phase of the oil” for short) in series [4] is on record as “in the oil phase”. Further, the “systemic absorption of DNA” value in series [5] (mouse, in vivo, po) is recorded as “Maximal systemic absorption”. Also, the “in vivo transfection efficiency over naked DNA” value in [6] is roughly 3 ×.

In the case of `CC(C)CCC[C@@H](C)[C@H]1CC[C@H]2[C@@H]3CC=C4C[C@@H](OC(=O)NCCCCCN(CCCN)CCCCNCCCN)CC[C@]4(C)[C@H]3CC[C@]12C.Cl` [cholesteryl spermine, N^4-(5-N-(3β-O-carbamoyl-5-cholestene)-1-pentyl)-spermine Hydrochloride], the “phase of the oil” value in series [4] is on record as “in the oil phase”. For the same molecule, the “systemic absorption of DNA” value in [5] (oral microemulsion containing the named cationic amphiphile) was “Maximal systemic absorption”.

“N^4-(5-(trilactosyllysyllysyl) amidopentyl spermine triacetate [trilactosyl spermine]”: in series [1], the “total amount of CPMs in all of the organs combined, rank order” value is recorded as “trilactosyl>monolactosyl≅bismannosyl≅monomannosyl>>>controls”.

On to benzalkonium chloride, for which, in series [4], the “phase of the oil” value is given as “in the oil phase”. The “systemic absorption of DNA” value in series [5] (mouse, in vivo, po) is “Maximal systemic absorption”.

For the molecule lactosyl spermine, the “retention of DNA” value in series [1] (IV, DNA monocomplex with modified spermine) worked out at 30%. Moreover, the “liver cell type transfected” value in series [7] was “primarily transfect hepatocytes”. Also, the “DNA internalization, cell type” value in series [7] (liver sections, day 5) is given as “exclusively into hepatocytes”. For the same molecule, the betagalactosidase expression result in series [7] (liver sections, no cholesteryl spermine in complex) is listed as “poor”.

As for mannosyl spermine, in series [8] (GFP plasmid), the “expression from the internalized plasmid” value is “observed only when cholesteryl spermine was included”. Further, the “internalization of labeled DNA particles” value in [8] (all of the tested ratios) is “internalized”. The “liver cell type transfected” value in series [7] is reported as “transfect Kupfer cells”. Moreover, the “retention of DNA” value in series [9] is recorded as 85%.

As to octyl spermine, the “phase of the oil” value in series [4] is listed as “in the oil phase”. Moreover, in series [5] (mouse, in vivo, po), the “systemic absorption of DNA” value is “Maximal systemic absorption”.

B1: recombinant murine IL-12: recombinant murine IL-12 protein, 50 ug at day 0 (protein, UniProt P43431 23-215; P43432 23-335, looked up)
Interleukin-12 subunit alpha: RVIPVSGPARCLSQSRNLLKTTDDMVKTAREKLKHYSCTAEDIDHEDITRDQTSTLKTCLPLELHKNESCLATRETSSTTRGSCLPPQKTSLMMTLCLGSIYEDLKMYQTEFQAINAALQNHNHQQIILDKGMLVAIDELMQSLNHNGETLRQKPPVGEADPYRVKMKLCILLHAFSTRVVTINRVMGYLSSA
Interleukin-12 subunit beta: MWELEKDVYVVEVDWTPDAPGETVNLTCDTPEEDDITWTSDQRHGVIGSGKTLTITVKEFLDAGQYTCHKGGETLSHSHLLLHKKENGIWSTEILKNFKNKTFLKCEAPNYSGRFTCSWLVQRNMDLKFNIKSSSSSPDSRAVTCGMASLSAEKVTLDQRDYEKYSVSCQEDVTCPTAEETLPIELALEARQQNKYENYSTSFFIRDIIKPDPPKNLQMKPLKNSQVEVSWEYPDSWSTPHSYFSLKFFVRIQRKKEKMKETEEGCNQKGAFLVEKTSTEVQCKGGNVCVQAQDRYYNSSCSKWACVPCRVRS
Consider B1, for which the “effect of pre-treatment on IL-12 expression” value in the series with IL-12 p40 is listed as “does not prevent subsequent expression”.
